Entries after “also recorded” stand apart in the source; their conditions may differ.
What was measured:
[1] = report submitted on Agr 529; cited from earlier work
normal animals = assay: Administration in normal animals, hypolipemia (conclusion, route not stated); type: in vivo
Experimental: (§1) In normal animals, the fatty acids, triglycerides and cholesterol are determined by automated enzymatic reactions.

[2] = system: hypertriglyceridemia provoked by Triton WR1339 in Sprague-Dawley rats; assay: Triton-provoked hypertriglyceridemia in rats, per os; type: in vivo, rat; details: for Triglycerides: Triton controls 7.53 ± 0.49; for triglycerides plasma concentrations: per os in doses of 3 and 30 mg/kg; for triglycerides plasma concentrations / action on the increase in the circulating triglycerides: Triton model; for action on the increase in the circulating triglycerides: per os
Experimental: (§2) Sprague-Dawley male white rats, Iffa Credo, of an average weight of 260-270 g.
(§3) The hypertriglyceridemia is obtained by the intravenous (iv) injection of Triton WR1339 (tyloxapol) in a dose of 600 mg/kg, obtained from the Sigma Chemical Company, N. T 8761 (marginal vein of the ear of the rabbit, jugular vein or vein of the penis of the rat, under slight ether anesthesia, the pentobarbital which attaches itself on the A1 receptors being capable of interacting with the molecules used (Lhose et al., 1985). All the animals used had fasted for 15 hours. The blood was collected over heparin, centrifuged for 20 minutes (3000 rpm at 4° C.). In the serum collected, the TG (triglycerides) are determined in accordance with the GPO-PAP method Boeringher Peridochrom® Kit, item 701-882.
The animals are divided into six lots:
one control-control lot receiving per os isotonic saline solution in a volume of 0.2 ml/100 g of rat 30 minutes before the iv injection of isotonic saline solution.
a Triton control lot receiving per os isotonic saline solution 30 minutes before the iv injection of Triton.
an Agr 529 lot (3 mg/kg in a volume of 0.2 ml/100 g of rat), 30 minutes before the iv injection of Triton.
one lot receiving, under the same conditions, 30 mg/kg of Agr 529 per os.
two lots receiving, under the same conditions as previously, 3 and 30 mg/kg of Agr 540 per os.

normal rats [3] = assay: Kinetic study of Agr 529 at 3 mg/kg iv in normal rats; type: in vivo, rat
Experimental: as §1
c) Kinetic study of Agr 529 in an amount of 3 mg/kg iv (FIG. V, VI, VII, VIII).

normal rats [4] = assay: Normal rats, intraperitoneal administration, plasma lipids; type: in vivo, rat
Experimental: as §1
The animals are distributed in five lots of five animals each:
[…] receiving 0.1, 0.3, and 3 mg/kg.
The animals are sacrificed two hours after the administration of the Agr 529.

normal rats [5] = assay: Normal rats, intravenous administration, plasma lipids; type: in vivo, rat
Experimental: as §1
The animals are distributed into six lots of five animals each:
a control lot receiving the placebo (0.9% isotonic saline solution),
five treated lots receiving 0.03, 0.1, 0.3, 1 and 3 mg/kg of Agr 529 respectively by intravenous injection.
The animals are sacrificed two hours after the injection of the product.

[6] = system: HMG CoA reductase (β-hydroxy-β-methylglutaryl CoA reductase); assay: In vitro study on microsomal fraction of liver: HMG CoA reductase activity; type: biochemical
[7] = system: hypertriglyceridemia provoked by Triton WR1339 in Sprague-Dawley rats; assay: Triton-provoked hypertriglyceridemia in rats, intraperitoneal route; type: in vivo, rat
Experimental: as §2, §3
(§4) The animals are divided into two lots:
a control lot (4 animals) receiving isotonic saline solution in a volume of 0.2 ml/100 g of rat by intraperitoneal injection (ip), 20 minutes before the injection of the Triton (iv).
a treated lot (5 animals) receiving 2 mg/kg of Agr 529 ip, under the same conditions as the controls.
Two hours later, the animals are sacrificed by decapitation; the blood is collected by the method previously described, for determination of the triglycerides.

[8] = system: ACAT (cholesterol-O-acyl transferase); assay: In vitro study on microsomal fraction of liver: ACAT activity; type: biochemical; details: 'the same' = no action
[9] = system: hypertriglyceridemia provoked by Triton WR1339 in Fauve de Bourgogne rabbits; assay: Triton-provoked hypertriglyceridemia in rabbits, Agr 529 iv; type: in vivo, rabbit
Experimental: Fauve de Bourgogne rabbits of an average weight of 2 kg (EGAV).
as §3, §4
a control lot (6 animals) receiving isotonic saline solution iv in a volume of 0.5 ml/kg two hours before the injection of Triton and the same dose of saline solution as previously.
a treated lot (7 animals) receiving 2 mg/kg of Agr 529 iv in a volume of 0.5 ml/kg two hours before the injection of Triton and a new dose of Agr 529 (2 mg/kg).
A sampling of arterial blood, two hours after the injection of the Triton, permits determination of the triglycerides.

[10] = rats, 30 mg/kg P.O. + Triton 600 mg/kg iv

CCC(=O)OC[C@H]1O[C@@H](n2cnc3c(NCCCC(N)=O)ncnc32)[C@H](OC(=O)CC)[C@@H]1OC(=O)CC [Agr 540, 6-(3-carboxamido-propylamino)-9-(2', 3', 5', tripropionyl-β-D-ribosyl) purine]
absorption per os relative to Agr 529 [1]: better absorbed per os
hypolipemia (reduction of fatty acids, phospholipides, triglycerides and cholesterol) (normal animals): causes a hypolipemia
Triglycerides ([2]; rats n = 6, first Agr 540 column, head prints 30 mg/kg P.O. + Triton 600 mg/kg iv): 5.65 ± 0.46 mmols/liter
Triglycerides [2, 10]: 3.67 ± 0.59 mmols/liter
triglycerides plasma concentrations ([2]; rats): return the triglycerides plasma concentrations to normal
action on the increase in the circulating triglycerides ([2]; rats): significantly oppose the increase in the circulating triglycerides

NC(=O)CCCNc1ncnc2c1ncn2[C@@H]1O[C@H](CO)[C@@H](O)[C@H]1O [Agr 529, (N6-3-carboxamido-propyl) adenosine]
time after injection at which the hypolipemizing effect starts to appear (normal rats [3]): 30 min
time of maximum hypolipemizing effect (normal rats [3]): maximum at the end of two hours; also recorded: maximum effect at two hours
stability towards adenosine deaminase (inferred from long duration of action) (normal rats [3]; inferred in vivo): not destroyed by the adenosine deaminase
concentrations of fatty acids, triglycerides, total cholesterol and phospholipides (normal rats [3]; kinetic study): significant decrease
hyperglycemia (normal rats [4]; 0.3 mg/kg intraperitoneal): hyperglycemia is no longer found
minimal effective dose (normal rats [4]; Rattus norvegicus, ip, 2 h, intraperitoneal, two hours after administration, read-out: dose from which the hypolipemizing effect starts to be significant): ≥ 0.3 mg/kg
hypolipemia, dose dependence (normal rats [4]; intraperitoneal administration): hypolipemia as a function of the doses
hyperglycemia (normal rats [5]; 3 mg/kg iv): hyperglycemia is furthermore noted
concentration of plasma triglycerides, total cholesterol, fatty acids and phospholipides (normal rats [5]; 3 mg/kg iv, two hours after the injection, 3 mg/kg): significant decrease
minimal effective dose (normal rats [5]; Rattus norvegicus, 2 h, iv, doses 0.03-3 mg/kg, two hours after injection, read-out: dose from which the hypolipemizing effect appears): ≥ 0.1 mg/kg
plasma concentrations of fatty acids, phospholipides, triglycerides and total cholesterol, dose dependence (normal rats [5]; intravenous administration): decrease, as a function of the doses
cholesterol and triglyceride concentrations of the high density lipoproteins (HDL) (normal rats [5]; route not specified): No action
action on the activity of the HMG CoA reductase [6]: no action
plasma concentration of the circulating triglycerides ([7]; 2 mg/kg intraperitoneally, Triton WR 1339 model): normalized the plasma concentration of the circulating triglycerides
Triglycerides ([7]; rats n = 5, Agr 529 2 mg/kg ip + Triton 600 mg/kg iv, two hours later, controls 6.32 ± 0.92): 2.90 ± 0.26 mmols/liter
decrease in the quantity of triglycerides in circulation ([7]; rats, Agr 529 2 mg/kg ip, Triton model, significant (**)): 54%
action on the activity of ACAT [8]: The same is true
plasma concentration of the circulating triglycerides ([9]; 2 mg/kg intravenously in rabbits, Triton WR 1339 model): normalized the plasma concentration of the circulating triglycerides
Triglycerides time = 2 ([9]; rabbits n = 7, 2 hours after Agr 529 2 mg/kg iv, before Triton): 3.19 ± 0.38 mmol/L
Triglycerides time = 4 ([9]; rabbits n = 7, 2 hours after second Agr 529 2 mg/kg iv + Triton 600 mg/kg iv): 4.65 ± 0.44 mmol/L
increase of the triglycerides caused by Triton ([9]; rabbits, Agr 529 2 mg/kg iv, control increase 196.5%): 45%
Triglycerides time = 0 ([9]; rabbits, test lot n = 7, time = 0, before first injection of Agr 529 2 mg/kg iv): 1.95 ± 0.34 mmol/L
concentration of triglycerides less than the Triton controls ([9]; rabbits, time 4, Agr 529 2 mg/kg iv): 150%
hypolipemia (reduction of fatty acids, phospholipides, triglycerides and cholesterol) (normal animals): causes a hypolipemia
Triglycerides ([2]; rats, 3 mg/kg P.O. + Triton 600 mg/kg iv): 4.87 ± 0.69 mmols/liter
Triglycerides [2, 10]: 4.64 ± 0.74 mmols/liter
triglycerides plasma concentrations ([2]; rats): return the triglycerides plasma concentrations to normal
action on the increase in the circulating triglycerides ([2]; rats): significantly oppose the increase in the circulating triglycerides
